# Laboratory results: patent US20100298448A1, “PENETRATION ENHANCERS FOR FUNGICIDAL AGENTS” (priority 2006, published 2010)
# Conditions: apple tree (Golden Delicious variety)
# Description: In this test, the penetration of active substances through enzymatically isolated cuticles of apple tree leaves was measured.
# Leaves which were cut off in the stage of full development of apple trees of the Golden Delicious variety were used. The isolation of the cuticles was effected in a manner such that • first leaf discs marked on the underside with dye and punched out were filled by means of vacuum infiltration with a pectinase solution (0.2 to 2% strength) buffered to a pH between 3 and 4, sodium azide was then added and • the leaf discs thus treated were allowed to stand until disintegration of the original leaf structure and detachment of the noncellular cuticle.
# Thereafter, only those cuticles of the upper sides of the leaves which were free of staltoa and hairs were further used. They were washed several times alternately with water and a buffer solution at pH 7. The clean cuticles obtained were finally drawn onto small Teflon plates and smoothed and dried with a gentle air jet.
# In the next step, the cuticle membranes thus obtained were placed in stainless steel diffusion cells (=transport chambers) for membrane transport investigations. For this purpose, the cuticles were placed by means of forceps centrally on the silicone grease-coated edges of the diffusion cells and closed with a likewise greased ring. The arrangement was chosen so that the morphological outside of the cuticles faced outwards, i.e. towards the air, while the original inside faced the interior of the diffusion cell. The diffusion cells were filled with water or with a mixture of water and solvent. […]
# After the application of the spray liquors, in each case the water was allowed to evaporate, and in each case the chambers were then turned around and were placed in thermostated trays, air having a defined temperature and atmospheric humidity being blown onto the outside of the cuticle. […] The active substance penetration was measured with radioactively marked active substance.
compound,measurement,value
"CC(C)(C)C(O)(CCc1ccc(Cl)cc1)Cn1cncn1 (stereo not drawn) [Tebuconazole, tebuconazole]",Penetration* after 5 hours [%],2%
same,Penetration* after 1 day [%],8%
same,Penetration** after 2 days [%],15%
